In paper PMC11989212, “Experimental Conditions to Retrieve Intrinsic Cooperativity α Directly from Single Binding Assay Data Exemplified by the Ternary Complex Formation of FKBP12, MAPRE1 and Macrocyclic Molecular Glues” (International Journal of Molecular Sciences, 2025):
Entries after “also recorded” stand apart in the source; their conditions may differ.

Key:
FKBP12 [1] = target: T1, FKBP12 (Homo sapiens, UniProt P62942); test: Spectral shift target engagement assay, binary binding to FKBP12; settings: 40 nM FKBP12-NTA; KC,1 = EC50 − [Ctot]/2
T1 sequence (P62942 whole entry, species assumed): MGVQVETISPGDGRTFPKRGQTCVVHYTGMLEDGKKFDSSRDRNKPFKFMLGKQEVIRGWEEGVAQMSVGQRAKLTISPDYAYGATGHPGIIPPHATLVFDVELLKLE
Source text: (§1) Our method of choice is the spectral shift method, which monitors binding events on the target isothermally and in equilibrium via an environment-sensitive near-infrared fluorophore. In the case of target engagement, either the proximity of the ligand towards the dye or structural changes occurring in the target as a result of binding lead to a change in the chemical environment of the fluorophore. Those changes affect the physiochemical properties of the reporter fluorophore and translate into either blue or red shifts (or peak broadening) of emission peaks upon ligand binding, which can be sensitively monitored by simultaneously recording the fluorescence at two wavelengths (i.e., at 650 nm and 670 nm). Calculating the ratio between the two fluorescence channels then allows to monitor subtle emission shifts that occur as a result of target engagement. Affinity measurements can then be performed by recording the spectral shift as a function of ligand concentration.
(§2) Binding studies through FKBP12: To monitor the binding of R,--SLF-11 by the stronger binding FKBP12 in the absence and in the presence of 10 μM MAPRE1 via %Cbound, binary and %Cbound, ternary, respectively, the concentration of reversibly NTA-labeled FKBP12 was limited to [Ctot] = 40 nM. […] In contrast to the experimental setup in the previous two binding experiments with monitoring through the weaker binding protein MAPRE1, where the applied protein concentrations were optimally chosen, this is not the case for the binding experiment through the stronger binder FKBP12. First of all, the applied excess of T with [Ttot] = 10 μM is roughly 20000-fold off of the proposed 100 times KT,1 threshold, which would correspond to 180 mM. Only under such excess conditions of T can the equilibrium of forming TL under the constraint that all ligand L is bound to T be reached to ensure that [Ltot] approaches the “ligand” concentration [TL]. […] If KC,2 is sufficiently high, the 20 nM deviation to correct for the protein concentration could be neglected. However, the resulting calculated value for KC,2 is 0.023 nM, accounting for the cooperativity α = 10,405 and KC,1 = 234 nM as derived by the MAPRE1 experiment. This value is far below the applied protein concentration of [Ctot] = 40 nM and makes it infeasible to estimate KC,2 from the EC50 of the %Cbound, ternary curve. Consequently, the EC50 shifts, meaning the apparent cooperativity, from monitoring the binding by the stronger binding protein C are diverging from the underlying intrinsic cooperativity α. […] The deviation of calculated (254 nM/24.2 nM = 10.5) and measured apparent cooperativity (254 nM/66 nM = 3.8) can be explained by a negative cooperativity induced by the His6-NTA tag of FKBP12. Studies to lower [Ctot] and identify a better position for the spectral shift tag on FKBP12 are ongoing (Figure 6a).
(§3) His-tagged FKBP12 was labeled using the His-Tag Labeling Kit RED-tris-NTA 2nd Generation (MO-L018; NanoTemper Technologies GmbH). The affinity between NTA dye and the His-tag of FKBP12 was determined as 7 nM. MAPRE1 was labeled using the Protein Labeling Kit RED-NHS 2nd Generation (MO-L011; NanoTemper Technologies GmbH). In brief, 10 µM of MAPRE1 was incubated with a 3-fold molar excess of fluorophore for 30 min. The unreacted fluorophore was removed by performing a size exclusion purification (B-column). Collecting the protein fraction yielded 1.8 µM labeled MAPRE1, with a degree of labeling of 0.8, as determined on a Nanodrop.
(§4) A 1:2 dilution series of all compounds (starting from the 10 mM stock concentration) was prepared in pure DMSO. Each concentration was diluted 25-fold with assay buffer (20 mM HEPES, pH 7.4, 150 mM NaCl, 1 mM DTT (all from Carl Roth, Karlsruhe, Germany), and 0.01% Pluronic F-127 (Sigma Aldrich, Taufkirchen, Germany)). Next, 10 µL from each of the prepared ligand dilutions was transferred into an empty well on a Dianthus Microwell Plate (DI-P001A). […]

MAPRE1 = target: T2, MAPRE1 (Homo sapiens, UniProt Q15691); test: Spectral shift target engagement assay, binary binding to MAPRE1; settings: up to [Ltot] = 200 μM
T2 construct: His-tag (N)
T2 sequence (Q15691 1-268): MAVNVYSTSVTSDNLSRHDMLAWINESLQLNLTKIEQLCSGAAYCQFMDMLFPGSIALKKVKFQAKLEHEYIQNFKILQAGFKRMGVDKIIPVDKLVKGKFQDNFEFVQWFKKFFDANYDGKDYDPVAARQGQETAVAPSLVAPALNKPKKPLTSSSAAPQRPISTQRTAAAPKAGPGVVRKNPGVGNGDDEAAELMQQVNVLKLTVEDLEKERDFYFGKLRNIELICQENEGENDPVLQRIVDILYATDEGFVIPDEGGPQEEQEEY

[2] = system: FKBP12:R,S-SLF-X:MAPRE1 ternary complex; set-up: method as in PMID 40059881; settings: TR-FRET proximity assay, reported earlier; cited from earlier work
[3] = target: T3, MAPRE1 in the presence of FKBP12 (Homo sapiens, UniProt P62942+Q15691); test: Spectral shift target engagement assay, binding to MAPRE1 in the presence of 10 μM FKBP12 (ternary)
T3 construct: His-tag (N)
T3 sequence (P62942 whole entry, one chain of several): as the sequence (P62942 whole entry, species assumed) above
Source text: as §1
Binding study through MAPRE1: MAPRE1 was labeled via lysines using an NHS-conjugated dye. The final concentration of MAPRE1NHS (referring to [Ttot]) was 5 nM. Compounds could be titrated up to a concentration of 200 μM (referring to [Ltot]). […] However more accuracy could only be achieved at higher ligand concentrations—ideally at full target saturation. However, this was experimentally infeasible due to assay conditions (i.e., the requirement of maintaining a certain DMSO concentration or avoiding solubility issues of the ligand). Although the determined KT,1 values of binding to MAPRE1 are only approximations, their relative ranking reflects the underlying differences in the affinity of the ligands L to MAPRE1. Performing these experiments in duplicates confirmed the high signal-to-noise ratio, i.e., there was no significant deviation between the two curves, indicating a high accuracy of the interpolated EC50 values. Due to the low [Ttot] = 5 nM, this value coincides with KT,1 (1.8 mM − 0.005 mM/2 ≈ 1.8 mM). […] Consequently, KT,2 corresponds to 173 nM and not 177.5 nM.
as §3
A 1:2 dilution series of all compounds (starting from the 10 mM stock concentration) was prepared in pure DMSO. Each concentration was diluted 25-fold with assay buffer (20 mM HEPES, pH 7.4, 150 mM NaCl, 1 mM DTT (all from Carl Roth, Karlsruhe, Germany), and 0.01% Pluronic F-127 (Sigma Aldrich, Taufkirchen, Germany)). Next, 10 µL from each of the prepared ligand dilutions was transferred into an empty well on a Dianthus Microwell Plate (DI-P001A). Another 10 µL of 2-fold concentrated labeled protein (either in the absence or the presence of 20 µM counter protein, both in assay buffer then yielded the final assay concentrations. Interaction measurements were prepared in duplicates for each condition. For binary interactions of compounds with MAPRE1, a final target concentration of 5 nM and a highest ligand concentration of 50 µM was prepared. For ternary interactions of compounds and MAPRE1 in the presence of 10 µM unlabeled FKBP12, the highest ligand concentration was increased to 200 µM, the highest concentration achievable while maintaining a constant 2% DMSO concentration. For all interactions measured via FKBP12, the target was prepared at a final concentration of 40 nM, supplemented with 5 nM NTA fluorophore. […]

FKBP12 [4] = target: T1, FKBP12; set-up: method as in PMID 40059881; settings: TR-FRET competitive binding assay from previous work; read-out: EC50_FKBP12; cited from earlier work
[5] = target: FKBP12 in the presence of MAPRE1 (Homo sapiens, UniProt P62942+Q15691); test: Spectral shift target engagement assay, binding to FKBP12 in the presence of 10 μM MAPRE1 (ternary); settings: 40 nM FKBP12-NTA, 10 μM MAPRE1; read-out: EC50 of the %Cbound, ternary curve (measured)
Sequence of FKBP12 in the presence of MAPRE1 (P62942 whole entry, one chain of several): as the sequence (P62942 whole entry, species assumed) above
Source text: as §1, §2, §3, §4

COc1ccc(CCC2OC(=O)C3CCCCN3C(=O)C(=O)C(C)(C)COC(=O)C(C)NC(=O)C3CC(O)CN3C(=O)COc3cccc2c3)cc1OC (stereo not shown) [R,S-SLF-12]
Kd (FKBP12 [1]): 13 nM
binary binding to MAPRE1 (%Tbound, binary) (MAPRE1): no binding; also recorded: Neither binary nor ternary binding
TR-FRET Recruitment Assay (%Amax) [2]: 0%
ternary binding to MAPRE1 ([3]; 10 μM FKBP12): Neither binary nor ternary binding
Ratio [Ctot]/KC,1 ([3]; [Ctot] = 10 μM FKBP12): 769
EC50 (FKBP12 [4]): 43 nM
EC50 [5]: 30 nM
